In this test the target is MET (Homo sapiens, UniProt P08581). Kind of test: MET kinase assay. The class given is biochemical.
Chain of MET (P08581 25-307): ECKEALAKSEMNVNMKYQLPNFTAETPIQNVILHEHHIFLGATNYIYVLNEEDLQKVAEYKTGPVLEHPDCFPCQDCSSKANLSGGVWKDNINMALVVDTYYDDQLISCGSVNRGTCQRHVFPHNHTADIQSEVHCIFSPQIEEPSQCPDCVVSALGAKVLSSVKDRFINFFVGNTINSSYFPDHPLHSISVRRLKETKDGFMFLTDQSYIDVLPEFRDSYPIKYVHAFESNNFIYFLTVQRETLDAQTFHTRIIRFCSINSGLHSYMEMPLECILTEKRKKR
Chain of MET (P08581 308-1390): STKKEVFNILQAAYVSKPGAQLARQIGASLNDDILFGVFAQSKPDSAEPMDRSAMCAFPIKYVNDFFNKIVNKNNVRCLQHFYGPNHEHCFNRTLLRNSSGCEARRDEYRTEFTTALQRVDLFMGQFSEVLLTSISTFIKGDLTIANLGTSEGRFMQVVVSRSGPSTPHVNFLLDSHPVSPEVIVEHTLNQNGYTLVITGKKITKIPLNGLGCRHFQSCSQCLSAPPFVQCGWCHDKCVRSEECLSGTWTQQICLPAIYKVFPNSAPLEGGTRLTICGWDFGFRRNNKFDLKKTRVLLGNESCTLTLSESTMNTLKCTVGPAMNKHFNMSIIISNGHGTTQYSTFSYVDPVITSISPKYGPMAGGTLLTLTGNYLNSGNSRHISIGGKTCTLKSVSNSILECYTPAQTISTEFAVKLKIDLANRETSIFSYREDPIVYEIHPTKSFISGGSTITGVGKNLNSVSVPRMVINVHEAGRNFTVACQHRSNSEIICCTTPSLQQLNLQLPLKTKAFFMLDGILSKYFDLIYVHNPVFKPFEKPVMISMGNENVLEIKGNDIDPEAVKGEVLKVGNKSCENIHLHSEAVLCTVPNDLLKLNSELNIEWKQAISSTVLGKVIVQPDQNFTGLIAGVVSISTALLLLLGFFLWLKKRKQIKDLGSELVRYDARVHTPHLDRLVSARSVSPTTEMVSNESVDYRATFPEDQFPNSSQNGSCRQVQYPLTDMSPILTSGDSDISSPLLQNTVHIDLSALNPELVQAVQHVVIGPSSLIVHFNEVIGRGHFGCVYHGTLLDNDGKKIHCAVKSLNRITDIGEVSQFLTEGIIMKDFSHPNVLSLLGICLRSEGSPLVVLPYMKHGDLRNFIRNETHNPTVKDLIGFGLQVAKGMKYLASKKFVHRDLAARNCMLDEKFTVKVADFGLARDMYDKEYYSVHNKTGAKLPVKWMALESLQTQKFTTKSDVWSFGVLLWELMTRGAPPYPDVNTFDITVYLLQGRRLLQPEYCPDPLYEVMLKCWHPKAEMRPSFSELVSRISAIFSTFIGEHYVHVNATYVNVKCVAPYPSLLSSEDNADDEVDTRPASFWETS

A word on the IC50: it is the concentration at which inhibition is half-maximal. Read a low IC50 as inhibition by little substance. Regarding `COc1ccc2cc3[n+](cc2c1OC)CCc1cc2c(cc1-3)OCO2` [BBR, Berberine], half-maximal inhibition (IC50) required 19.6 µM.

For the origin of these results see PMC8755628 (Pharmacological research, 2021).
